Data reported in patent US20240059729A1, “MULTIFUNCTIONAL CYCLIC DINUCLEOTIDE AND USE THEREOF” (TYLIGAND BIOSCIENCE (SHANGHAI) LIMITED, priority 2020, published 2024).
Where a name gives a salt, the structure may show the parent alone.

Experiments:
[1] = tested on: IFN-β secretion by THP-1 cells; assay: Activation of IFN-β secretion by THP-1 cells (Human IFN-beta ELISA); assay type: cell-based; details: THP-1 cells, 24 hours, IFN-β ELISA
Protocol: THP-1 cell, a human monocytic leukemia cell line, has the STING phenotype of HAQ type, i.e., R71H-G230A-R293Q. This assay used the Human IFN-beta DuoSet ELISA Kit from R & D (R & D, Cat #DY814-05) and the DuoSet ELISA Ancillary Reagent Kit 2 (R & D, Cat #DY008) to evaluate the activation of IFN-β secretion from THP-1 cells by representative compounds of the invention.
In thawing the THP-1 cells (ATCC #TIB-202), a cell freezing tube was quickly shaken in a water bath at 37° C. to thaw the cells within 1 min. The thawed cell suspension was taken and evenly mixed with an RPMI1640 medium (Hyclone, product #SH30027.01) containing 10% FBS (Life Technology, Cat #10099-141), centrifuged for 5 min at 1000 rpm, and the supernatant was discarded. The cell pellet was resuspended in 5 mL of the complete medium (RPMI 1640 medium containing 10% FBS), placed into a cell culture flask with a bottom area of 25 cm^2, and incubated in a cell incubator at 37° C., 5% CO2 and 95% humidity. When the cell confluence reached about 80%, the cells were passaged. All the cells in the culture flask were transferred to a 15 mL centrifuge tube, centrifuged for 5 min at 1000 rpm, and the supernatant was discarded. 5 mL of fresh complete medium was added to re-suspend the cell pellet, 1 mL of which was taken to place in a cell culture flask with a bottom area of 25 cm^2, supplemented with 4 mL of fresh complete medium for further incubation. When the cell confluence reached about 80% again, plating was conducted following the procedure of cell passage, retaining 1/5 cell suspension for further inculation and remaining 4/5 of the cell suspension in a 15 mL centrifuge tube. The cell suspension was centrifuged to discard the old culture medium, washed once using RPMI1640 culture medium (serum-free), and centrifuged to remove the supernatant. The cells were then re-suspended in RPMI1640 culture medium (serum-free). Cell viability was then detected by Trypan blue exclusion test and to be used for plating when the cell viability was confirmed to be more than 95%. A cell suspension with a density of 1.1×10^6 viable cells/mL was prepared using RPMI1640 culture medium (serum-free), and 180 μL of the cell suspension was added to a 96-well cell culture plate (NUNC Company, Cat #167008) so that the cell density in the plate was 2×10^5 viable cells/well.
(§1) A 10 mM stock solution of the compounds in DMSO was first serially diluted at 3.16-fold with DMSO (Sigma, Cat #D2650) to the 5th concentration, and the 6th concentration was set as DMSO control (compound-free). Then, the DMSO solutions containing different concentrations of the compounds were diluted at 10-fold with PBS so that the DMSO content in each compound solution of various concentrations was 10%. Finally, 20 μL of each of such solutions was added into corresponding cell culture plate to provide an initial compound concentration of 100 μM, with the dilution fold of adjacent concentrations being 3.16 and the DMSO content in the cell culture plate being 1%. The cell plate was placed in a cell incubator for further 24 hours.
ELISA detection was conducted referring to the instructions from R & D System, Cat #DY814-05.
ELISA plate coating: PBS (R & D System Cat #DY006) was used to dilute the capture antibody (mouse anti-human IFN-β capture antibody PART #844508) to provide the working concentration, and 100 μL capture antibody working solution was added to a 96-well ELISA plate which was then sealed and incubated overnight at room temperature. Upon discarding the capture antibody working solution, the cell plate was washed 3 times with a washing buffer (0.05% Tween-20 in PBS, pH 7.2-7.4, R & D System Cat #WA126) at 400 μL of the washing buffer per well, and the washing buffer was thoroughly removed after each washing, with the final washing to be completely removed of the wash buffer by inverting and claping the plate to a clean piece of paper. […]

CT26 cells = assay: Inhibition of proliferation of CT26 cells (CellTiter-Glo); assay type: cell-based, mouse; details: Mus musculus, 120 hours, CellTiter-Glo
Protocol: CT26 cell is a mouse colorectal cancer cell line. This assay used the CellTiter-Glo Luminescence Cell Vitality Assay kit from Promega to evaluate the inhibitory activity of the compounds on the proliferation of CT26 cells.
In thawing the CT26 cells (ATCC #CRL-2638), a cell freezing tube was quickly shaken in a water bath at 37° C. to thaw the cells within 1 min. The thawed cell suspension was taken and evenly mixed with DMEM medium (GE, Cat #SH30243.01) containing 10% FBS (GIBCO, Cat #10099-141), centrifuged for 5 min at 1000 rpm, and the supernatant was discarded. The cell pellet was resuspended in 5 mL of the complete medium (DMEM medium containing 10% FBS), placed into a cell culture flask with a bottom area of 25 cm^2, and incubated in a cell incubator at 37° C., 5% CO2 and 95% humidity. When the cell confluence reached 70%˜80%, the cells were passaged. All the cells in the culture flask were transferred to a 15 mL centrifuge tube, centrifuged for 5 min at 1000 rpm, and the supernatant was discarded. 5 mL of fresh complete medium was added to re-suspend the cell pellet, 1 mL of which was taken to place in a cell culture flask with a bottom area of 25 cm^2, supplemented with 4 mL of fresh complete medium for further incubation. When the cell confluence reached 70%-80% again, plating was conducted following the procedure of cell passage, retaining 1/5 cell suspension for further inculation and remaining 4/5 of the cell suspension in a 15 mL centrifuge tube.
The cell suspension was centrifuged to discard the old culture medium, washed once using DMEM medium (serum-free), and centrifuged to remove the supernatant. The cells were then re-suspended in DMEM medium (serum-free). Cell viability was then detected by Trypan blue exclusion test and to be used for plating when the cell viability was confirmed to be more than 95%. A cell suspension with a density of 1.1×10^4 viable cells/mL was prepared using DMEM medium (serum-free), and 90 μL of the cell suspension was added to a 96-well 96-well transparent flat-bottomed black-walled cell culture plate (Corning, Cat #3603) so that the cell density in the plate was 1000 viable cells/well. A control group containing no cells, no compound, and complete medium only (i.e., a culture medium control), and a control group containing no compound but cells (i.e., a cell control) were set. The cell plates were placed in a cell incubator overnight.
as §1, with “9th” for “5th”, “10th” for “6th”, “PBS (Solarbio, Cat #P1020)” for “PBS”, “10” for “20”, “120” for “24”
After 120 hours, the CellTiter-Glo reagent (Promega, Cat #G7572) was thawed and the plates were equilibrated at room temperature for 30 min. 100 uL of CellTiter-Glo was added to each well of the plate, and the cells were lysed thoroughly by shaking on an orbital shaker for 5 min. The plates were placed at room temperature for 20 min to stabilize the luminescence signal, and the luminescence value of each well was scanned at full wavelength with a multifunctional microplate reader (Molecular Devices, Spectramax M3). […]

| Compound | IC50 (CT26 cells) [µM] | EC50 ([1]; Homo sapiens, THP-1, 24 h) [µM] | further results |
| --- | --- | --- | --- |
| Nc1nc2c(ncn2[C@@H]2O[C@@H]3COP(=O)(O)O[C@H]4[C@@H](O)[C@H](n5cnc6c(N)ncnc65)O[C@@H]4COP(=O)(O)O[C@@H]2[C@@H]3O)c(=O)[nH]1 [2′,3′-cGAMP, cGAMP, reference compound] |  |  | EC50 [1]: 10.1 to 100 µM |
| Nc1nc(Cl)nc2c1ncn2[C@H]1C[C@H](O)[C@@H](CO)O1 [Cladribine, cladribine, reference compound] | < 1 |  |  |
| Nc1nc(Cl)nc2c1ncn2[C@@H]1O[C@H](CO)[C@@H](O)[C@@H]1F [Clofarabine—, clofarabine, reference compound] | < 1 |  |  |
| Nc1nc(Cl)nc2c1ncn2[C@@H]1O[C@@H]2CO[P@@](=O)(S)OC3[C@@H](F)[C@H](n4cnc5c(N)nc(Cl)nc54)O[C@@H]3CO[P@@](=O)(S)O[C@@H]2C1F (stereo partly drawn) [Example 1, (3′,3′)-cyclo-(Rp,Rp)-bis-[3′-O-phosphorothioate-diester-2-chloro-2′-deoxy-2′-fluoro-beta-adenosine]1.5-ammonium-0.5-1,8-diazabicycloundec-7-ene-salt] | 1 to 10 |  |  |
| Nc1nc(Cl)nc2c1ncn2[C@H]1CC2O[P@](=O)(S)OC[C@H]3O[C@@H](n4cnc5c(N)nc(Cl)nc54)CC3O[P@](=O)(S)OC[C@H]2O1 (stereo partly shown) [Example 2, (3′,3′)-cyclo-(Rp,Rp)-bis-[3′-O-phosphorothioate-diester-2-chloro-2′-deoxyadenosine]] | 1 to 10 |  |  |
| Nc1nc2c(ncn2[C@@H]2O[C@@H]3CO[P@@](=O)(S)OC4C(F)[C@H](n5cnc6c(N)nc(Cl)nc65)O[C@@H]4CO[P@](=O)(S)OC2C3O)c(=O)[nH]1 (stereo partly drawn) [Example 8, (2′,3′)-cyclo-(Sp,Rp)-[2′-O-phosphorothioate-diester-guanosine]-[3′-O-phosphorothioate-diester-2-chloro-2′-deoxy-2′-fluoro-beta-adenosine] diammonium salt] |  | 10.1 to 100 |  |
| Nc1nc2c(ncn2[C@@H]2O[C@@H]3CO[P@](=O)(S)OC4C(F)[C@H](n5cnc6c(N)nc(Cl)nc65)O[C@@H]4CO[P@](=O)(S)OC2C3O)c(=O)[nH]1 (stereo partly drawn) [Example 9, (2′,3′)-cyclo-(Sp,Sp)-[2′-O-phosphorothioate-diester-guanosine]-[3′-O-phosphorothioate-diester-2-chloro-2′-deoxy-2′-fluoro-beta-adenosine] diammonium salt] |  | 10.1 to 100 |  |
| Nc1nc2c(ncn2[C@@H]2O[C@@H]3CO[P@@](=O)(S)OC4C[C@H](n5cnc6c(N)nc(Cl)nc65)O[C@@H]4CO[P@](=O)(S)OC2C3O)c(=O)[nH]1 (stereo partly shown) [Example 11, (2′,3′)-cyclo-(Sp,Rp)-[2′-O-phosphorothioate-diester-guanosine]-[3′-O-phosphorothioate-diester-2-chloro-2′-deoxy-adenosine] diammonium salt] |  | 10.1 to 100 |  |
| Nc1nc2c(ncn2[C@@H]2O[C@@H]3CO[P@@](=O)(S)OC4C(F)[C@H](n5cnc6c(N)nc(Cl)nc65)O[C@@H]4CO[P@](=O)(S)OC3C2O)c(=O)[nH]1 (stereo partly drawn) [Example 15, (3′,3′)-cyclo-(Sp,Rp)-[3′-O-phosphorothioate-diester-guanosine]-[3′-O-phosphorothioate-diester-2-chloro-2′-deoxy-2′-fluoro-beta-adenosine] diammonium salt] |  |  | EC50 ([1]; diammonium salt): 10.1 to 100 µM |
| Nc1nc(Cl)nc2c1ncn2[C@@H]1O[C@@H]2CO[P@@](=O)(S)OC3[C@@H](CO[P@@](=O)(S)O[C@@H]2C1F)O[C@@H](n1cnc2c(N)ncnc21)[C@H]3F (stereo partly drawn) [Example 18, (3′,3′)-cyclo-(Rp,Rp)-[3′-O-phosphorothioate-diester-2′-deoxy-2′-fluoroadenosine]-[3′-O-phosphorothioate-diester-2-chloro-2′-deoxy-2′-fluoro-beta-adenosine]-0.5-ammonium-1.5-1,8-diazabicycloundec-7-ene-salt] |  | 10.1 to 100 |  |
| Nc1ncnc2c1ncn2[C@@H]1O[C@@H]2CO[P@@](=O)(S)O[C@@H]3C[C@H](n4cnc5c(N)nc(Cl)nc54)O[C@@H]3CO[P@@](=O)(S)OC2[C@@H]1F (stereo partly shown) [Example 19, (3′,3′)-cyclo-(Rp,Rp)-[3′-O-phosphorothioate-diester-2′-deoxy-2′-fluoroadenosine]-[3′-O-phosphorothioate-diester-2-chloro-2′-deoxyadenosine] 0.5-1,8-diazabicycloundec-7-ene-salt] |  | 10.1 to 100 |  |
| Nc1nc2c(ncn2[C@@H]2O[C@@H]3CO[P@@](=O)(S)OC4C[C@H](n5cnc6c(N)nc(Cl)nc65)O[C@@H]4CO[P@@](=O)(S)OC3C2F)c(=O)[nH]1 (stereo partly shown) [Example 21, (3′,3′)-cyclo-(Rp,Rp)-[3′-O-phosphorothioate-diester-2′-deoxy-2′-fluoroguanosine]-[3′-O-phosphorothioate-diester-2-chloro-2′-deoxyadenosine] diammonium salt] |  | 10.1 to 100 |  |
| CNc1nc(N)c2ncn([C@@H]3O[C@@H]4CO[P@@](=O)(S)O[C@H]5C(O)[C@@H](CO[P@@](=O)(S)O[C@@H]4C3F)O[C@H]5n3cnc4c(=O)[nH]c(N)nc43)c2n1 (stereo partly drawn) [Example 26, (2′,3′)-cyclo-(Rp,Rp)-[2′-O-phosphorothioate-diester-guanosine]-[3′-O-phosphorothioate-diester-2-methylamino-2′-deoxy-2′-fluoro-beta-adenosine] diammonium salt] |  | 1 to 10 |  |
